Laboratory results from patent US11117900B2 (Vertex Pharmaceuticals Incorporated, priority 2012, dated 2021).
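Further: compound concentration needed to lower the IC50 of Cisplatin alone by a set fold.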

The compounds below were run on HCT116 colorectal cancer cells (assay: Cisplatin sensitization assay (96 h MTS cell viability)). Conditions: Cisplatin sensitization value.
Type: cell-based
Experimental: Compounds can be screened for their ability to sensitize HCT116 colorectal cancer cells to Cisplatin using a 96 h cell viability (MTS) assay. […] Compounds and Cisplatin are then both added simultaneously to the cell media in 2-fold serial dilutions from a top final concentration of 10 μM as a full matrix of concentrations in a final cell volume of 200 μl, and the cells are then incubated at 37° C. in 5% CO2. After 96 h, 40 μl of MTS reagent (Promega G358a) is added to each well and the cells are incubated for 1 h at 37° C. in 5% CO2.
Compounds with a Cisplatin sensitization value of <0.02 μM are marked with “+++.” Compounds with a Cisplatin sensitization value >0.02 μM but <0.2 μM are marked with “++.” Compounds with a Cisplatin sensitization value >0.2 μM but <5 μM are marked with “+.”
With `CO[C@H]1CCN(C(=O)C2CCN(c3c(F)cncc3NC(=O)c3c(N)nn4cc(F)cnc34)CC2)C1` [I-G-99, (S)-2-amino-6-fluoro-N-(5-fluoro-4-(4-(3-methoxypyrrolidine-1-carbonyl)piperidin-1-yl)pyridin-3-yl)pyrazolo[1,5-a]pyrimidine-3-carboxamide] the “Cisplatin Sensitization Assay” value was “+++ (Compounds with a Cisplatin sensitization value of <0.02 μM are marked with “+++.”)”.
With `CN1CCC(C(=O)N2CCC(c3ccncc3NC(=O)c3c(N)nn4cc(F)cnc34)CC2)CC1` [I-C-16, 2-amino-6-fluoro-N-(4-(1-(1-methylpiperidine-4-carbonyl)piperidin-4-yl)pyridin-3-yl)pyrazolo[1,5-a]pyrimidine-3-carboxamide] the “Cisplatin Sensitization Assay” value was “+ (Compounds with a Cisplatin sensitization value >0.2 μM but <5 μM are marked with “+.”)”.
`Cc1ccncc1NC(=O)c1c(N)nn2cc(F)cnc12` [I-C-4, 2-amino-6-fluoro-N-(4-methylpyridin-3-yl)pyrazolo[1,5-a]pyrimidine-3-carboxamide] was tested, and the “Cisplatin Sensitization Assay” value was “++ (Compounds with a Cisplatin sensitization value >0.02 μM but <0.2 μM are marked with “++.”)”.
In the case of `CN1CCC(Oc2ccncc2NC(=O)c2c(N)nn3cc(CC#N)cnc23)CC1` [I-O-23, 2-amino-6-(cyanomethyl)-N-(4-((1-methylpiperidin-4-yl)oxy)pyridin-3-yl)pyrazolo[1,5-a]pyrimidine-3-carboxamide], the “Cisplatin Sensitization Assay” value is reported as “+++ (Compounds with a Cisplatin sensitization value of <0.02 μM are marked with “+++.”)”.
With `Nc1nn2cc(Cl)cnc2c1C(=O)Nc1cnccc1N1CCC(N2CC[C@H](F)C2)CC1` [I-N-103, (S)-2-amino-6-chloro-N-(4-(4-(3-fluoropyrrolidin-1-yl)piperidin-1-yl)pyridin-3-yl)pyrazolo[1,5-a]pyrimidine-3-carboxamide] the “Cisplatin Sensitization Assay” value was “+++ (Compounds with a Cisplatin sensitization value of <0.02 μM are marked with “+++.”)”.
`Cn1ccnc1-c1ccncc1NC(=O)c1c(N)nn2cc(F)cnc12` [I-C-55, 2-amino-6-fluoro-N-(4-(1-methyl-1H-imidazol-2-yl)pyridin-3-yl)pyrazolo[1,5-a]pyrimidine-3-carboxamide] was tested, and the “Cisplatin Sensitization Assay” value was “+ (Compounds with a Cisplatin sensitization value >0.2 μM but <5 μM are marked with “+.”)”.
With `CN1CCC(C(=O)N2CC=C(c3c(F)cncc3NC(=O)c3c(N)nn4cc(F)cnc34)CC2)CC1` [I-C-38, 2-amino-6-fluoro-N-(5-fluoro-1′-(1-methylpiperidine-4-carbonyl)-1′,2′,3′,6′-tetrahydro-[4,4′-bipyridin]-3-yl)pyrazolo[1,5-a]pyrimidine-3-carboxamide] the “Cisplatin Sensitization Assay” value was “++ (Compounds with a Cisplatin sensitization value >0.02 μM but <0.2 μM are marked with “++.”)”.
With `CN1CCC(NC(=O)C2CCN(c3c(F)cncc3NC(=O)c3c(N)nn4cc(F)cnc34)CC2)CC1` [I-G-20, 2-amino-6-fluoro-N-(5-fluoro-4-(4-((1-methylpiperidin-4-yl)carbamoyl)piperidin-1-yl)pyridin-3-yl)pyrazolo[1,5-a]pyrimidine-3-carboxamide] the “Cisplatin Sensitization Assay” value was “+ (Compounds with a Cisplatin sensitization value >0.2 μM but <5 μM are marked with “+.”)”.
For `CN(C)C(=O)C1CCCN(c2ccncc2NC(=O)c2c(N)nn3cc(F)cnc23)C1` (stereo not shown) [I-N-290, 2-amino-N-(4-(3-(dimethylcarbamoyl)piperidin-1-yl)pyridin-3-yl)-6-fluoropyrazolo[1,5-a]pyrimidine-3-carboxamide], the “Cisplatin Sensitization Assay” value was “++ (Compounds with a Cisplatin sensitization value >0.02 μM but <0.2 μM are marked with “++.”)”.
In the case of `Nc1nn2cc(F)cnc2c1C(=O)Nc1cncc(F)c1N1CCC(C(=O)N2CC(F)C2)CC1` [I-G-74, 2-amino-6-fluoro-N-(5-fluoro-4-(4-(3-fluoroazetidine-1-carbonyl)piperidin-1-yl)pyridin-3-yl)pyrazolo[1,5-a]pyrimidine-3-carboxamide], the “Cisplatin Sensitization Assay” value is reported as “+++ (Compounds with a Cisplatin sensitization value of <0.02 μM are marked with “+++.”)”.
In the case of `Nc1nn2cc(Cl)cnc2c1C(=O)Nc1cnccc1O[C@H]1C[C@@]2(CCN2)C1` [I-O-79], the “Cisplatin Sensitization Assay” value is reported as “++ (Compounds with a Cisplatin sensitization value >0.02 μM but <0.2 μM are marked with “++.”)”.
In the case of `CN(C)CCNC(=O)C1CCN(c2c(F)cncc2NC(=O)c2c(N)nn3cc(F)cnc23)CC1` [I-G-30, 2-amino-N-(4-(4-((2-(dimethylamino)ethyl)carbamoyl)piperidin-1-yl)-5-fluoropyridin-3-yl)-6-fluoropyrazolo[1,5-a]pyrimidine-3-carboxamide], the “Cisplatin Sensitization Assay” value is reported as “+++ (Compounds with a Cisplatin sensitization value of <0.02 μM are marked with “+++.”)”.
`Nc1nn2cc(F)cnc2c1C(=O)Nc1cnccc1N1CCCCCC1` [I-N-264, 2-amino-N-(4-(azepan-1-yl)pyridin-3-yl)-6-fluoropyrazolo[1,5-a]pyrimidine-3-carboxamide] was tested, and the “Cisplatin Sensitization Assay” value was “+ (Compounds with a Cisplatin sensitization value >0.2 μM but <5 μM are marked with “+.”)”.
For `CN1CCN(c2c(F)cncc2NC(=O)c2c(N)nn3cc(F)cnc23)CC1=O` [I-N-212, 2-amino-6-fluoro-N-(5-fluoro-4-(4-methyl-3-oxopiperazin-1-yl)pyridin-3-yl)pyrazolo[1,5-a]pyrimidine-3-carboxamide], the “Cisplatin Sensitization Assay” value was “+++ (Compounds with a Cisplatin sensitization value of <0.02 μM are marked with “+++.”)”.
With `C[C@@H]1CN(C(=O)C2CCN(c3c(F)cncc3NC(=O)c3c(N)nn4cc(F)cnc34)CC2)CCN1` [I-G-45, (R)-2-amino-6-fluoro-N-(5-fluoro-4-(4-(3-methylpiperazine-1-carbonyl)piperidin-1-yl)pyridin-3-yl)pyrazolo[1,5-a]pyrimidine-3-carboxamide] the “Cisplatin Sensitization Assay” value was “+++ (Compounds with a Cisplatin sensitization value of <0.02 μM are marked with “+++.”)”.
With `Nc1nn2cc(F)cnc2c1C(=O)Nc1cnccc1-c1ccc(S(=O)(=O)N2CCC2)cc1` [I-C-64, 2-amino-N-(4-(4-(azetidin-1-ylsulfonyl)phenyl)pyridin-3-yl)-6-fluoropyrazolo[1,5-a]pyrimidine-3-carboxamide] the “Cisplatin Sensitization Assay” value was “+++ (Compounds with a Cisplatin sensitization value of <0.02 μM are marked with “+++.”)”.
`Nc1nn2cc(F)cnc2c1C(=O)Nc1cncc(F)c1N1CCN(C(=O)C2CNC2)CC1` [I-N-168, 2-amino-N-(4-(4-(azetidine-3-carbonyl)piperazin-1-yl)-5-fluoropyridin-3-yl)-6-fluoropyrazolo[1,5-a]pyrimidine-3-carboxamide] was tested, and the “Cisplatin Sensitization Assay” value was “+ (Compounds with a Cisplatin sensitization value >0.2 μM but <5 μM are marked with “+.”)”.
In the case of `N#CCc1cnc2c(C(=O)Nc3cnccc3OC3CCCOC3)c(N)nn2c1` (stereo not shown) [I-O-41, 2-amino-6-(cyanomethyl)-N-(4-((tetrahydro-2H-pyran-3-yl)oxy)pyridin-3-yl)pyrazolo[1,5-a]pyrimidine-3-carboxamide], the “Cisplatin Sensitization Assay” value is reported as “+++ (Compounds with a Cisplatin sensitization value of <0.02 μM are marked with “+++.”)”.
With `Nc1nn2cc(F)cnc2c1C(=O)Nc1cnccc1O[C@H]1CN2CCC1CC2` [I-O-5, (R)-2-amino-6-fluoro-N-(4-(quinuclidin-3-yloxy)pyridin-3-yl)pyrazolo[1,5-a]pyrimidine-3-carboxamide] the “Cisplatin Sensitization Assay” value was “+++ (Compounds with a Cisplatin sensitization value of <0.02 μM are marked with “+++.”)”.
